# Tested on: rats subjected to FPI (TBI model)
# Assay: Radial arms water maze (RAWM) after TBI (rat FPI)
# Format: in vivo
# Description: Craniotomy and lateral fluid percussion injury (FPI) were performed using a previously validated and published procedure. Farias S, et al. J. Neurotraum, 26, 1977-1986, 2009; Frey L. C. et al. J. Neurosci. Methods 177, 267-272, 2009. Throughout the specification animals subjected to this protocol are referred to as having a TBI since this treatment protocol is a TBI model. Briefly, rats were anesthetized with 3-5% isoflurane, isosol, VEDCO Inc., St. Joseph, Mo., via nose cone and mounted in a stereotaxic head frame. A 3 millimeter (mm) craniotomy was created and centered at 3 mm caudal to bregma and 3.5 mm left of the sagittal suture, keeping the exposed dura intact. One steel support screw was embedded in the skull on the contralateral side. A Luer-Lock hub with an inside diameter of 3.5 mm was centered over the craniotomy and bonded to the skull with cyanoacrylate adhesive and capped. Dental acrylic, Snap, Parka, Inc., Edgewood, N.J., was poured around the huh and screw. After the acrylic hardened antibiotic ointment was applied around the cap and the animals were returned to their cages. The next day, approximately 15-20 hours later, animals were anesthetized with isoflurane in an induction chamber, immediately connected to the FPI apparatus, and received a 20 millisecond (ms) pulse of pressurized sterile saline at 2.7 atmospheres (atm) of pressure to simulate a moderate severity impact on the intact dural surface through the craniotomy before awakening from anesthesia. […] All animals received a subcutaneous injection of the analgesic, buprenorphine, 0.05 milligram/kilogram (mg/kg) Buprenex, prior to craniotomy, and subsequent injections every 12 hours for two days. Moistened food pellets were provided after injury, and all animals were monitored daily for well-being and weight changes.
# The indole FLAP inhibitor MK-886 was prepared at a dose of 2.5 milligram/milliliter (mg/ml), dissolved in dimethyl sulfoxide (DMSO) and then diluted with 0.9% saline to 10% DMSO. The rats were briefly anesthetized with 3-3.5% isoflurane and either […] at a dose of 6 mg/kg or vehicle was administered intravenously (IV) by tail vein injection. […]
# The radial arms water maze (RAWM) consists of six 50 centimeter (cm) radial arms emanating from a circular area in a 160 cm diameter tank of 20.5° C. water, surrounded by 4 walls, each with a unique pattern. […] The start arm for each trial was determined in a pseudorandom fashion with three randomized sequences of the live non-goal arms. […] Videos for each of the 30 trials per animal were analyzed using Topscan (Cleversys Inc.) tracking software for errors and perseverance duration. […]
# All data shown are mean+/−standard error of the mean unless otherwise noted. Results were analyzed in SPSS 20 (IBM) or Prism 5.0 (GraphPad). […]
structure (smiles),measurement,setting,value
"CC(C)c1ccc2c(c1)c(SC(C)(C)C)c(CC(C)(C)C(=O)O)n2Cc1ccc(Cl)cc1 [MK-886, 1-[(4-Chlorophenyl)methyl]-3-[(1,1-dimethylethyl)thio]-α,α-dimethyl-5-(1-methylethyl)-1H-Indole-2-propanoic acid]",initial task learning versus vehicle,"Day 1, 15 swim trials, within sham group or within TBI group",no significant differences
same,"errors per swim, last five swim trials of the reversal task","TBI animals, injection 30 minutes post-injury, Day 2",1.26+/−0.700
same,"perseverance for the previous goal arm, swim 1 to swim 3 of reversal task","TBI rats, injection 30 minutes post-injury, Day 2",spent less time in the previous goal arm by swim 3
same,"errors per swim, last five swim trials of the reversal task","sham animals, injection 30 minutes post-injury, Day 2",0.850+/−0.583

# From patent publication US10080748B2, “Use of flap inhibitors to reduce neuroinflammation mediated injury in the central nervous system” (Bioscience Pharma Partners, LLC, priority 2014, dated 2018)
